Results from ChEMBL document CHEMBL5120927, “LEGO-Lipophosphonoxins: A Novel Approach in Designing Membrane Targeting Antimicrobials” (J Med Chem, 2022).

Assays:
[1] = tested on: Pseudomonas aeruginosa; assay: Antibacterial activity against multidrug-resistant Pseudomonas aeruginosa assessed as reduction in microbial growth incubated for 24 hrs by microdilution assay; format: functional
[2] = tested on: Escherichia coli; assay: Antibacterial activity against multidrug-resistant Escherichia coli CE5556 expressing CTX-M-15 assessed as reduction in microbial growth incubated for 24 hrs by microdilution assay; format: functional
[3] = Gradient chromatographic hydrophobicity index of the compound at pH 3.7 by HPLC analysis; format: ADME
[4] = Hemolytic activity in human RBC assessed as haemoglobin release measured after 3 hr; format: toxicity, cell-based, Erythrocyte; conditions: red blood cells (erythrocytes)
[5] = tested on: Pseudomonas aeruginosa; assay: Antibacterial activity against Pseudomonas aeruginosa ATCC 27853 = CCM 3955 assessed as inhibition of bacterial growth incubated for 24 hrs by microdilution assay; format: functional
[6] = tested on: Staphylococcus aureus; assay: Antibacterial activity against Staphylococcus aureus ATCC 29213 = CCM 4223 assessed as inhibition of bacterial growth incubated for 24 hrs by microdilution assay; format: functional
[7] = tested on: Enterococcus faecalis; assay: Antibacterial activity against Enterococcus faecalis ATCC 29212 = CCM 4224 assessed as inhibition of bacterial growth incubated for 24 hrs by microdilution assay; format: functional
[8] = tested on: Escherichia coli; assay: Antibacterial activity against Escherichia coli ATCC 25922 = CCM 3954 assessed as inhibition of bacterial growth incubated for 24 hrs by microdilution assay; format: functional
[9] = tested on: Enterococcus faecium; assay: Antibacterial activity against vancomycin resistant Enterococcus faecium 419/ANA assessed as reduction in microbial growth incubated for 24 hrs by microdilution assay; format: functional
[10] = tested on: Escherichia coli; assay: Antibacterial activity against Escherichia coli ATCC 25922 = CCM 3954 assessed as inhibition of bacterial growth incubated for 24 hrs in presence of BSA by microdilution assay; format: functional
[11] = tested on: Staphylococcus aureus; assay: Antibacterial activity against methicillin resistant Staphylococcus aureus 4591/A assessed as reduction in microbial growth incubated for 24 hrs by microdilution assay; format: functional
[12] = tested on: Staphylococcus epidermidis; assay: Antibacterial activity against Staphylococcus epidermidis CCM 7221 assessed as inhibition of bacterial growth incubated for 24 hrs by microdilution assay; format: functional
[13] = tested on: Staphylococcus aureus; assay: Antibacterial activity against Staphylococcus aureus ATCC 29213 = CCM 4223 assessed as inhibition of bacterial growth incubated for 24 hrs in presence of BSA by microdilution assay; format: functional

Compound | MIC [1] | MIC [2] | CHI [3] | HC50 at 3 h [4] | MIC [5] | MIC [6] | MIC [7] | MIC [8] | MIC [9] | MIC [10] | MIC [11] | MIC [12] | MIC [13]
Cl.Cl.Cl.Cl.Cl.Cl.NCCCN(CCCN)CCP(=O)(OCCCCCCCCCCOP(=O)(CCN(CCCN)CCCN)OCCc1ccccc1)OCCc1ccccc1 (configuration not stated) | 64 µg/mL | 64 µg/mL | 31.1 | > 500 µg/mL | 64 µg/mL | 2 µg/mL | 32 µg/mL | 16 µg/mL | 128 µg/mL | 32 µg/mL | 2 µg/mL | 1 µg/mL | 4 µg/mL
CCC/C=C\CCOP(=O)(CCN(CCCN)CCCN)OCCCCCCCOP(=O)(CCN(CCCN)CCCN)OCC/C=C\CCC.Cl.Cl.Cl.Cl.Cl.Cl (configuration not stated) | 128 µg/mL | 16 µg/mL | 31.3 | > 200 µg/mL | 128 µg/mL | 4 µg/mL | 64 µg/mL | 4 µg/mL | 128 µg/mL | 64 µg/mL | 4 µg/mL | 2 µg/mL | 8 µg/mL
CC/C=C\CCCOP(=O)(CCN(CCCN)CCCN)OCCCCCCOP(=O)(CCN(CCCN)CCCN)OCCC/C=C\CC.Cl.Cl.Cl.Cl.Cl.Cl (configuration not stated) | > 128 µg/mL | 64 µg/mL | 2.4 | > 200 µg/mL | > 128 µg/mL | 8 µg/mL | 128 µg/mL | 64 µg/mL | > 128 µg/mL | 128 µg/mL | 16 µg/mL | 4 µg/mL | 16 µg/mL
CC(C)COP(=O)(CCN(CCCN)CCCN)OCCCCCCCCCCOP(=O)(CCN(CCCN)CCCN)OCC(C)C.Cl.Cl.Cl.Cl.Cl.Cl (configuration not stated) | 64 µg/mL | 128 µg/mL | 35 | > 500 µg/mL | 128 µg/mL | 32 µg/mL | 64 µg/mL | > 128 µg/mL | 128 µg/mL | > 128 µg/mL | 16 µg/mL | 8 µg/mL | 16 µg/mL
CCCCCOP(=O)(CCN(CCCN)CCCN)OCCCCCCCCOP(=O)(CCN(CCCN)CCCN)OCCCCC.Cl.Cl.Cl.Cl.Cl.Cl (configuration not stated) | 128 µg/mL | > 128 µg/mL | 27.5 | > 100 µg/mL | > 128 µg/mL | 16 µg/mL | > 128 µg/mL | > 128 µg/mL | > 128 µg/mL | > 128 µg/mL | 8 µg/mL | 4 µg/mL | 32 µg/mL
CC/C=C\CCCOP(=O)(CCN(CCCN)CCCN)OCCCOP(=O)(CCN(CCCN)CCCN)OCCC/C=C\CC.Cl.Cl.Cl.Cl.Cl.Cl (configuration not stated) | > 128 µg/mL | > 128 µg/mL | 25.1 | > 200 µg/mL | > 128 µg/mL | 128 µg/mL | > 128 µg/mL | > 128 µg/mL | > 128 µg/mL | > 128 µg/mL | 64 µg/mL | 32 µg/mL | > 128 µg/mL
CC/C=C\CCCOP(=O)(CCN(CCCN)CCCN)OCCCCCOP(=O)(CCN(CCCN)CCCN)OCCC/C=C\CC.Cl.Cl.Cl.Cl.Cl.Cl (configuration not stated) | > 128 µg/mL | > 128 µg/mL | 27.7 | > 200 µg/mL | > 128 µg/mL | 16 µg/mL | > 128 µg/mL | 128 µg/mL | > 128 µg/mL | > 128 µg/mL | 32 µg/mL | 8 µg/mL | 64 µg/mL
CCCCCCCCCCOP(=O)(CCN(CCCN)CCCN)OCCCOP(=O)(CCN(CCCN)CCCN)OCCCCCCCCCC.Cl.Cl.Cl.Cl.Cl.Cl (configuration not stated) | 2 µg/mL | 1 µg/mL | 43.7 | 31.6 µg/mL | 2 µg/mL | 1 µg/mL | 1 µg/mL | 1 µg/mL | 4 µg/mL | 4 µg/mL | 1 µg/mL | 1 µg/mL | 1 µg/mL
CCCCCCOP(=O)(CCN(CCCN)CCCN)OCCCCCCOP(=O)(CCN(CCCN)CCCN)OCCCCCC.Cl.Cl.Cl.Cl.Cl.Cl (configuration not stated) | > 128 µg/mL | 128 µg/mL | 28.7 | 634 µg/mL | > 128 µg/mL | 8 µg/mL | > 128 µg/mL | 32 µg/mL | > 128 µg/mL | 64 µg/mL | 16 µg/mL | 4 µg/mL | 16 µg/mL
CCC/C=C\CCOP(=O)(CCN(CCCNC(=N)N)CCCNC(=N)N)OCCCCCCOP(=O)(CCN(CCCNC(=N)N)CCCNC(=N)N)OCC/C=C\CCC.Cl.Cl.Cl.Cl.Cl.Cl (configuration not stated) | 64 µg/mL | 2 µg/mL | 29.7 | > 500 µg/mL | 64 µg/mL | 2 µg/mL | 64 µg/mL | 2 µg/mL | > 128 µg/mL | 2 µg/mL | 2 µg/mL | 2 µg/mL | 2 µg/mL
CCCCCCCCCCOP(=O)(CCN(CCCN)CCCN)OCCCCCCOP(=O)(CCN(CCCN)CCCN)OCCCCCCCCCC.Cl.Cl.Cl.Cl.Cl.Cl (configuration not stated) | 2 µg/mL | 1 µg/mL | 44 | 16 µg/mL | 1 µg/mL | 1 µg/mL | 1 µg/mL | 1 µg/mL | 1 µg/mL | 1 µg/mL | 0.5 µg/mL | 0.5 µg/mL | 0.2 µg/mL
Cl.Cl.Cl.Cl.Cl.Cl.NCCCN(CCCN)CCP(=O)(OCCCCCCOP(=O)(CCN(CCCN)CCCN)OCCC12CC3CC(CC(C3)C1)C2)OCCC12CC3CC(CC(C3)C1)C2 (configuration not stated) | 2 µg/mL | 1 µg/mL | 38.4 | 72.2 µg/mL | 1 µg/mL | 0.5 µg/mL | 1 µg/mL | > 128 µg/mL | 2 µg/mL | 1 µg/mL | 0.5 µg/mL | 0.5 µg/mL | 0.2 µg/mL
CCCCCCCCOP(=O)(CCN(CCCN)CCCN)OCCCOP(=O)(CCN(CCCN)CCCN)OCCCCCCCC.Cl.Cl.Cl.Cl.Cl.Cl (configuration not stated) | 8 µg/mL | 4 µg/mL | 35.5 | > 500 µg/mL | 16 µg/mL | 2 µg/mL | 8 µg/mL | 2 µg/mL | 64 µg/mL | 4 µg/mL | 2 µg/mL | 2 µg/mL | 2 µg/mL
CCCCOP(=O)(CCN(CCCN)CCCN)OCCCCCCCCCCOP(=O)(CCN(CCCN)CCCN)OCCCC.Cl.Cl.Cl.Cl.Cl.Cl (configuration not stated) | > 128 µg/mL | > 128 µg/mL | 27.3 | > 500 µg/mL | > 128 µg/mL | 16 µg/mL | 128 µg/mL | > 128 µg/mL | > 128 µg/mL | > 128 µg/mL | 8 µg/mL | 4 µg/mL | 16 µg/mL
